# From patent US10544126B2, “Sulfonyl piperidine derivatives and their use for treating prokineticin mediated diseases” (TAKEDA PHARMACEUTICAL COMPANY LIMITED, priority 2012, dated 2020)
# Target: human PKR1 receptors (Homo sapiens (Human), UniProt Q8TCW9)
# Assay: PKR1 antagonist assay: block of PK1-mediated intracellular calcium release (FLIPR)
# Assay type: cell-based
# Details: antagonist activity; RBL2H3 cells expressing human PKR1; stimulation with PK1 at EC80; calcium fluorescence
# Method: Prokineticin receptor 1 (PKR1) antagonists may be functionally assessed by measurement of change in intracellular calcium levels induced by Gq mediated increase in inositol triphosphate (IP3) levels. The ability of a compound to block the intracellular release of calcium mediated by PK1 in RBL2H3 cells expressing human PKR1 receptors is determined as a measure of the compound's antagonist activity in vitro.
# Approximately 10,000 cells per assay well are seeded in normal culture medium in a 384 well plate (Corning). […]
# To test for antagonist activity, test compounds at a final concentration range between 0.32 nM-10 μM (diluted in assay buffer) are added to the assay wells and allowed to incubate for 10 minutes prior to stimulation with PK1. After incubation with test compounds the assay plate is placed in a FLIPR Tetra (Molecular Devices) and PK1 (diluted in assay buffer) is added at the determined EC80 concentration (final). Ligand-dependent changes in intracellular calcium levels are determined by measuring changes in fluorescence of the dye at […] following excitation at 485 nm.
# Chain of human PKR1 receptors (Q8TCW9 whole entry): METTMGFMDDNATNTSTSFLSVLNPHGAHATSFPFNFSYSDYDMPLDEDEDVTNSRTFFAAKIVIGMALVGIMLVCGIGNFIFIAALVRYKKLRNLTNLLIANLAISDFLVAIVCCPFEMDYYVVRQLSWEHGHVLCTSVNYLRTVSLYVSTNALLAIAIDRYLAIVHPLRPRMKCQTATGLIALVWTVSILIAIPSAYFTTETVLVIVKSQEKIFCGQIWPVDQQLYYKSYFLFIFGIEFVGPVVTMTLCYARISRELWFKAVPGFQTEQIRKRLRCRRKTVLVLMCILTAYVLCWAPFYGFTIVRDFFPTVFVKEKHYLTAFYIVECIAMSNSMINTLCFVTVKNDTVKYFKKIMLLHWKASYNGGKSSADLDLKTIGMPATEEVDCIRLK
compound,measurement,value
"Cc1n[nH]c(C)c1S(=O)(=O)N1CCC(C(C#N)c2ccc(Cl)cc2F)CC1 (stereo not shown) [Example 92, 2-(4-Chloro-2-fluorophenyl)-2-(1-((3,5-dimethyl-1H-pyrazol-4-yl)sulfonyl)piperidin-4-yl)acetonitrile]",IC50,1850 nM
